From patent US9880084B2, “Apparatus for separation of particles” (THE UNIVERSITY OF BRITISH COLUMBIA, priority 2011, dated 2018)

Tested on: red blood cells
Assay: Red blood cell deformability analysis in microfluidic funnel constriction device (threshold pressure / cortical tension)
Type: cell-based
Settings: for Average cortical tension calculated based on equation (1): number in brackets = cells tested
Description: The deformability of red blood cells was evaluated using a microfluidic cell separation apparatus. An apparatus comprising a serial funnel configuration (schematically represented in FIG. 4) was employed, with funnel constructions of W0=0.5, 1, 1.5, 2, 3, 4, 5 and 6, 7 μm in series. As red blood cells are toroid or disc-shaped, rather than generally spherical, in the absence of movement restriction, they may progress through the device as a ‘flat’ disk (e.g. sideways), or ‘on edge’ (substantially upright, like a wheel). A channel with a height of about 2-3 μm or less will confine the majority of red blood cells to migrate as a ‘flat disk, while a channel with a height greater than about 3-4 μm will allow the red blood cell to migrate in either configuration, or folded or at an angle. Thus, the apparatus was configured to provide a channel depth of about 3 μm, which confines the cell to move flat into the funnel, not to stand up and fold as it traverses through. The threshold pressure required to push the cell through the funnel is measured as an indicator of the whole cell rigidity or deformability. The minimum applied pressure differential is ˜0.3 Pa. Accordingly, the cortical tension of the cell can be measured based on the information of the cell radius, funnel geometry and measured threshold pressure, as governed by equation (1) above derived from Laplace law PMS (phenazine methosulfate) generates superoxide from within the cell in the same way as the auto-oxidation process inside of the sickled red blood cell (RBC). In response to oxidation, the cell membrane stiffens. This induced stiffening may be employed to simulate the microrheologic properties of dense and/or dehydrated sickle cells (Hebbel, R. P., A. Leung, and N. Mohandas, Oxidation-Induced Changes in Microrheologic Properties of the Red-Blood-Cell Membrane. Blood, 1990. 76(5): p. 1015-1020, Hebbel, R. P., The sickle erythrocyte in double jeopardy: autoxidation and iron decompartmentalization. Seminars in hematology, 1990. 27(1): p. 51-69, and references therein). Here we use microfluidic device to measure the rigidity of PMS treated red blood cells compared to untreated (control) red blood cells, as well as the degree of rigidity change corresponding to different concentration of PMS. RBCs were suspended at 20% hematocrit in balanced salt solution with antibiotics. The RBC suspensions were then modified with 0, 10, 25, and 50 μM PMS for 60 minutes, followed by dilution 200:1 using phosphate buffered saline for use with the apparatus. The PMS treated RBCs and control RBCs were tested to investigate the effect of PMS on rigidity and/or deformability of the RBCs. Measured threshold pressures are an indication of the changes in deformability. […] Threshold pressures were measured of RBC squeezing through 1.1 μm and 1.4 μm constrictions.

COS(=O)(=O)[O-].C[n+]1c2ccccc2nc2ccccc21 [PMS, phenazine methosulfate]
Threshold pressure of RBC squeezing through constrictions (1.1 μm and 1.4 μm constrictions, 0, 10, 25, 50 μM PMS, FIG. 15): increases as the concentration increases
Deformability of the red cell membrane (PMS 10 to 50 μM): decreases as the PMS concentration increases
Average cortical tension calculated based on equation (1) (RBC treated with 10 μmol PMS for 60 minutes): 2.29 ± 0.19 (7) pN/μm
Average cortical tension calculated based on equation (1) (RBC treated with 25 μmol PMS for 60 minutes): 3.38 ± 0.30 (7) pN/μm
Average cortical tension calculated based on equation (1) (RBC treated with 50 μmol PMS for 60 minutes): 4.17 ± 0.19 (8) pN/μm
Red cell rigidity versus normal control RBC (fresh from the PMS treatment): obvious increase in rigidity
